According to patent publication US8574563B2 (Bristol-Myers Squibb Company, priority 2006, dated 2013):

Test system: HCV 1b-377-neo replicon cells
Experiment: HCV replicon assay, HCV 1b-377-neo replicon cells (1b FRET)
Format: cell-based, Hepatitis C virus genotype 1b
Conditions: HCV 1b-377-neo replicon cells; HCV 1b genotype; read-out: EC50 range against HCV 1b (Table 2, Range)
Summary of the method: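 Compounds were tested in genotype 1b subgenomic replicon cells carrying a neomycin marker, alongside a matched replicon line with an NS5A Y2065H substitution that confers resistance to a reference NS5A inhibitor.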

`CN(C)[C@@H](C(=O)N1CCC[C@H]1c1ncc(-c2ccc(-c3ccc(-c4cnc([C@@H]5CCCN5C(=O)c5ccc(N6CCOCC6)cc5)[nH]4)cc3)cc2)[nH]1)c1ccccc1` [Example 94-9, (1R)-N,N-dimethyl-2-((2S)-2-(5-(4′-(2-((2S)-1-(4-(4-morpholinyl)benzoyl)-2-pyrrolidinyl)-1H-imidazol-5-yl)-4-biphenylyl)-1H-imidazol-2-yl)-1-pyrrolidinyl)-2-oxo-1-phenylthanamine] gave an EC50 of 0.001 to 0.999 nM.

Same assay, conditions: Hepatitis C virus, HCV 1b-377-neo replicon cells; HCV 1b genotype; read-out: EC50 range against HCV 1b (Table 2, Range)

First: CN(C)CC[C@H](N)C(=O)N1CCC[C@H]1c1ncc(-c2ccc(-c3ccc(-c4cnc([C@@H]5CCCN5C(=O)[C@@H](N)CCN(C)C)[nH]4)cc3)cc2)[nH]1 [cj-142, (3S,3′S)-4,4′-(4,4′-biphenyldiylbis(1H-imidazole-5,2-diyl(2S)-2,1-pyrrolidinediyl))bis(N~1~,N~1~-dimethyl-4-oxo-1,3-butanediamine)]
Second: CN(C)[C@@H](C(=O)N1CCC[C@H]1c1ncc(-c2ccc(-c3ccc(-c4cnc([C@@H]5CCCN5C(=O)[C@@H](c5ccccc5)N(C)C)[nH]4)cc3)cc2)[nH]1)c1ccccc1 [Example 1, (1R,1′R)-2, 2′-(4,4′-biphenyldiylbis (1H-imidazole-5,2-diyl(2S)-2,1-pyrrolidinediyl))bis(N,N-dimethyl-2-oxo-1-phenylethanamine)]
The EC50 of the first is higher: 1000 to 10000 nM for the first, 0.001 to 0.999 nM for the second.

`COC(=O)N[C@@H](C(=O)N1C[C@H](O)C[C@H]1c1nc(-c2ccc(-c3ccc(-c4c[nH]c([C@@H]5C[C@@H](O)CN5C(=O)[C@H](NC(=O)OC)c5ccccc5)n4)cc3)cc2)c[nH]1)c1ccccc1` [Example 24-11, dimethyl (4,4′-biphenyldiylbis(1H-imidazole-5,2-diyl((2S,4R)-4-hydroxy-2,1-pyrrolidinediyl)((1R)-2-oxo-1-phenyl-2,1-ethanediyl)))biscarbamate] and `COC(=O)N[C@H](C(=O)N1CCC[C@H]1c1ncc(-c2ccc(-c3ccc(-c4cnc([C@@H]5CCCN5C(=O)[C@@H](NC(=O)OC)c5ccccc5)[nH]4)cc3)cc2)[nH]1)c1ccccc1` [Example M12, dimethyl (4,4′-biphenyldiylbis(1H-imidazole-5,2-diyl(2S)-2,1-pyrrolidinediyl((1S)-2-oxo-1-phenyl-2,1-ethanediyl)))biscarbamate] fall in the same range of EC50: 1 to 99 nM for the first, 1 to 99 nM for the second.

First: COC(=O)N[C@@H](C)C(=O)N1CCC[C@H]1c1ncc(-c2ccc(-c3ccc(-c4nc([C@@H]5CCCN5C(=O)[C@H](C)NC(=O)OC)[nH]c4CO)cc3)cc2)[nH]1 [Example J14f.1, methyl ((1S)-2-((2S)-2-(4-(4′-(4-(hydroxymethyl)-2-((2S)-1-(N-(methoxycarbonyl)-L-alanyl)-2-pyrrolidinyl)-1H-imidazol-5-yl)-4-biphenylyl)-1H-imidazol-2-yl)-1-pyrrolidinyl)-1-methyl-2-oxoethyl)carbamate]
Second: COC(=O)N[C@@H](C)C(=O)N1C[C@H](F)C[C@H]1c1ncc(-c2ccc(-c3ccc(-c4cnc([C@@H]5C[C@@H](F)CN5C(=O)[C@H](C)NC(=O)OC)[nH]4)cc3)cc2)[nH]1 [JG-3, methyl ((1S)-2-((2S,4R)-4-fluoro-2-(5-(4′-(2-((2S,4R)-4-fluoro-1-(N-(methoxycarbonyl)-L-alanyl)-2-pyrrolidinyl)-1H-imidazol-5-yl)-4-biphenylyl)-1H-imidazol-2-yl)-1-pyrrolidinyl)-1-methyl-2-oxoethyl)carbamate]
The EC50 of the first is higher: 1 to 99 nM for the first, 0.001 to 0.999 nM for the second.

`COC(=O)N[C@H](C(=O)N1CCC[C@H]1c1nc(-c2ccc(-c3ccc(-c4c[nH]c([C@@H]5CCCN5C(=O)[C@@H](NC(=O)O[C@@H]5CCOC5)C(C)C)n4)cc3)cc2)c[nH]1)C(C)C` [Example F56, (3R)-tetrahydro-3-furanyl ((1S)-1-(((2S)-2-(4-(4′-(2-((2S)-1-(N-(methoxycarbonyl)-L-valyl)-2-pyrrolidinyl)-1H-imidazol-4-yl)-4-biphenylyl)-1H-imidazol-2-yl)-1-pyrrolidinyl)carbonyl)-2-methylpropyl)carbamate] and `COC(=O)N[C@H](C(=O)N1CCC[C@H]1c1ncc(-c2ccc(-c3ccc(-c4cnc([C@@H]5CCCN5C(=O)[C@@H](Nc5noc(N)n5)C(C)C)[nH]4)cc3)cc2)[nH]1)C(C)C` [cj-16, methyl ((1S)-1-(((2S)-2-(5-(4′-(2-((2S)-1-(N-(5-amino-1,2,4-oxadiazol-3-yl)-L-valyl)-2-pyrrolidinyl)-1H-imidazol-5-yl)-4-biphenylyl)-1H-imidazol-2-yl)-1-pyrrolidinyl)carbonyl)-2-methylpropyl)carbamate] fall in the same range of EC50: 0.001 to 0.999 nM for the first, 0.001 to 0.999 nM for the second.

First: CN(C)C(C(=O)N1CCC[C@H]1c1ncc(-c2ccc(-c3ccc(-c4cnc([C@@H]5CCCN5C(=O)[C@@H](c5ccccc5)N(C)C)[nH]4)cc3)cc2)[nH]1)c1cccnc1 (stereo partly drawn) [Example 94-45, 2-((2S)-2-(5-(4′-(2-((2S)-1-((2R)-2-(dimethylamino)-2-phenylacetyl)-2-pyrrolidinyl)-1H-imidazol-5-yl)-4-biphenylyl)-1H-imidazol-2-yl)-1-pyrrolidinyl)-N,N-dimethyl-2-oxo-1-(3-pyridinyl)ethanamine]
Second: CCN(CC)[C@@H](C(=O)N1CCC[C@H]1c1ncc(-c2ccc(-c3ccc(-c4cnc([C@@H]5CCCN5C(=O)[C@@H](c5ccccc5)N(C)C)[nH]4)cc3)cc2)[nH]1)c1ccccc1 [Example M52, (1R)-2-((2S)-2-(5-(4′-(2-((2S)-1-((2R)-2-(diethylamino)-2-phenylacetyl)-2-pyrrolidinyl)-1H-imidazol-5-yl)-4-biphenylyl)-1H-imidazol-2-yl)-1-pyrrolidinyl)-N,N-dimethyl-2-oxo-1-phenylethanamine]
The EC50 of the first is lower: 0.001 to 0.999 nM for the first, 1 to 99 nM for the second.

`O=C(N[C@@H](C(=O)N1CCC[C@H]1c1ncc(-c2ccc(-c3ccc(-c4cnc([C@@H]5CCCN5C(=O)[C@@H]5CCCO5)[nH]4)cc3)cc2)[nH]1)c1ccccc1)N1CCOCC1` [Example 111, N-((1R)-2-oxo-1-phenyl-2-((2S)-2-(5-(4′-(2-((2S)-1-((2S)-tetrahydro-2-furanylcarbonyl)-2-pyrrolidinyl)-1H-imidazol-5-yl)-4-biphenylyl)-1H-imidazol-2-yl)-1-pyrrolidinyl)ethyl)-4-morpholinecarboxamide] and `O=C(N[C@@H](C(=O)N1CCC[C@H]1c1ncc(-c2ccc(-c3ccc(-c4cnc([C@@H]5CCCN5C(=O)[C@@H]5CCCO5)[nH]4)cc3)cc2)[nH]1)c1ccccc1)C1CCOCC1` [Example 115, N-((1R)-2-oxo-1-phenyl-2-((2S)-2-(5-(4′-(2-((2S)-1-((2S)-tetrahydro-2-furanylcarbonyl)-2-pyrrolidinyl)-1H-imidazol-5-yl)-4-biphenylyl)-1H-imidazol-2-yl)-1-pyrrolidinyl)ethyl) tetrahydro-2H-pyran-4-carboxamide] fall in the same range of EC50: 0.001 to 0.999 nM for the first, 0.001 to 0.999 nM for the second.

`COC(=O)N[C@@H](C(=O)N1CCC[C@H]1c1ncc(-c2ccc(-c3ccc(-c4cnc([C@@H]5CCCN5C(=O)N5CCOCC5)[nH]4)cc3)cc2)[nH]1)c1ccccc1` [Example 78, methyl ((1R)-2-((2S)-2-(5-(4′-(2-((2S)-1-(4-morpholinylcarbonyl)-2-pyrrolidinyl)-1H-imidazol-5-yl)-4-biphenylyl)-1H-imidazol-2-yl)-1-pyrrolidinyl)-2-oxo-1-phenylethyl)carbamate] and `COC(=O)N[C@@H](C(=O)N1CCC[C@H]1c1ncc(-c2ccc(-c3ccc(-c4cnc([C@@H]5CCCN5C(=O)[C@H]5CCCO5)[nH]4)cc3)cc2)[nH]1)c1ccccc1` [Example 36, methyl ((1R)-2-oxo-1-phenyl-2-((2S)-2-(5-(4′-(2-((2S)-1-((2R)-tetrahydro-2-furanylcarbonyl)-2-pyrrolidinyl)-1H-imidazol-5-yl)-4-biphenylyl)-1H-imidazol-2-yl)-1-pyrrolidinyl)ethyl)carbamate] fall in the same range of EC50: 0.001 to 0.999 nM for the first, 0.001 to 0.999 nM for the second.

First: CCN(CC)[C@@H](C(=O)N1CCC[C@H]1c1ncc(-c2ccc(-c3ccc(-c4cnc([C@@H]5CCCN5C(=O)[C@H](Cc5cccnc5)NC(=O)OC)[nH]4)cc3)cc2)[nH]1)c1ccccc1 [cj-84, methyl ((1S)-2-((2S)-2-(5-(4′-(2-((2S)-1-((2R)-2-(diethylamino)-2-phenylacetyl)-2-pyrrolidinyl)-1H-imidazol-5-yl)-4-biphenylyl)-1H-imidazol-2-yl)-1-pyrrolidinyl)-2-oxo-1-(3-pyridinylmethyl)ethyl)carbamate]
Second: CCC(=O)N1CCC[C@H]1c1ncc(-c2ccc(-c3ccc(-c4cnc([C@@H]5CCCN5C(=O)[C@H](NC(=O)OC)c5ccccc5)[nH]4)cc3)cc2)[nH]1 [Example 32, methyl ((1R)-2-oxo-1-phenyl-2-((2S)-2-(5-(4′-(2-((2S)-1-propionyl-2-pyrrolidinyl)-1H-imidazol-5-yl)-4-biphenylyl)-1H-imidazol-2-yl)-1-pyrrolidinyl)ethyl)carbamate]
The EC50 of the first is lower: 0.001 to 0.999 nM for the first, 1 to 99 nM for the second. The first is the more potent here.

First: COC(=O)N[C@H]1CCC[C@@H]1C(=O)N1CCC[C@H]1c1ncc(-c2ccc(-c3ccc(-c4cnc([C@@H]5CCCN5C(=O)[C@H]5CCC[C@@H]5NC(=O)OC)[nH]4)cc3)cc2)[nH]1 [cj-155, dimethyl (4,4′-biphenyldiylbis(1H-imidazole-5,2-diyl(2S)-2,1-pyrrolidinediylcarbonyl(1S,2S)-2,1-cyclopentanediyl))biscarbamate]
Second: COC(=O)N[C@@H](C(=O)N1CCC[C@H]1c1ncc(-c2ccc(-c3ccc(-c4cnc([C@@H]5CCCN5C(=O)Cc5ccccc5C)[nH]4)cc3)cc2)[nH]1)c1ccccc1 [Example 84-69, methyl ((1R)-2-((2S)-2-(5-(4′-(2-((2S)-1-((2-methylphenyl)acetyl)-2-pyrrolidinyl)-1H-imidazol-5-yl)-4-biphenylyl)-1H-imidazol-2-yl)-1-pyrrolidinyl)-2-oxo-1-phenylethyl)carbamate]
The EC50 of the first is higher: 1 to 99 nM for the first, 0.001 to 0.999 nM for the second. The second is the more potent here.

`CCC(C)[C@H](NC)C(=O)N1CCC[C@H]1c1nc(-c2ccc(-c3ccc(-c4cnc([C@@H]5CCCN5C(=O)[C@@H](NC)C(C)CC)[nH]4)cc3)cc2)c[nH]1` (stereo partly drawn) [Example F33, (2S)-N,3-dimethyl-1-((2S)-2-(4-(4′-(2-((2S)-1-((2S)-3-methyl-2-(methylamino)pentanoyl)-2-pyrrolidinyl)-1H-imidazol-5-yl)-4-biphenylyl)-1H-imidazol-2-yl)-1-pyrrolidinyl)-1-oxo-2-pentanamine] showed an EC50 of 100 to 999 nM.
